The values below come from patent US8999976B2, “Modulators of cystic fibrosis transmembrane conductance regulator” (Vertex Pharmaceuticals Incorporated, priority 2008, dated 2015).

For the test, the target named is T1, ΔF508-CFTR (Homo sapiens, UniProt P13569, DEL508-508).
T1 construct: expressed in transfected cells
Put plainly: Membrane potential optical assay for potentiators of ΔF508-CFTR (FLIPR III, voltage sensing dyes). It is filed as cell-based. To be noted: for Emax: NIH3T3, 100% efficacy is the maximum response obtained with 4-methyl-2-(5-phenyl-1H-pyrazol-3-yl)phenol, ΔF508 CFTR NIH 3T3 cells; for EC50: temperature-corrected ΔF508 CFTR NIH 3T3 cells, forskolin activation. The text has this: The assay utilizes fluorescent voltage sensing dyes to measure changes in membrane potential using a fluorescent plate reader (e.g., FLIPR III, Molecular Devices, Inc.) as a readout for increase in functional ΔF508-CFTR in NIH 3T3 cells.
To identify potentiators of ΔF508-CFTR, a double-addition HTS assay format was developed. This HTS assay utilizes fluorescent voltage sensing dyes to measure changes in membrane potential on the FLIPR III as a measurement for increase in gating (conductance) of ΔF508 CFTR in temperature-corrected ΔF508 CFTR NIH 3T3 cells.
Solutions • Bath Solution #1: (in mM) NaCl 160, KCl 4.5, CaCl2 2, MgCl2 1, HEPES 10, pH 7.4 with NaOH. • Chloride-Free Bath Solution: Chloride Salts in Bath Solution #1 are Substituted with Gluconate Salts.
NIH3T3 mouse fibroblasts stably expressing ΔF508-CFTR are used for optical measurements of membrane potential. The cells are maintained at 37° C. in 5% CO2 and 90% humidity in Dulbecco's modified Eagle's medium supplemented with 2 mM glutamine, 10% fetal bovine serum, 1×NEAA, β-ME, 1×pen/strep, and 25 mM HEPES in 175 cm^2 culture flasks. For all optical assays, the cells were seeded at ˜20,000/well in 384-well matrigel-coated plates and cultured for 2 hrs at 37° C. before culturing at 27° C. for 24 hrs. for the potentiator assay. For the correction assays, the cells are cultured at 27° C. or 37° C. with and without compounds for 16-24 hours. Electrophysiological Assays for assaying ΔF508-CFTR modulation properties of compounds.

Where only a bound is given, the exact number is not on record here.

T1 sequence (P13569 with tags, fused parts or gaps DEL508-508): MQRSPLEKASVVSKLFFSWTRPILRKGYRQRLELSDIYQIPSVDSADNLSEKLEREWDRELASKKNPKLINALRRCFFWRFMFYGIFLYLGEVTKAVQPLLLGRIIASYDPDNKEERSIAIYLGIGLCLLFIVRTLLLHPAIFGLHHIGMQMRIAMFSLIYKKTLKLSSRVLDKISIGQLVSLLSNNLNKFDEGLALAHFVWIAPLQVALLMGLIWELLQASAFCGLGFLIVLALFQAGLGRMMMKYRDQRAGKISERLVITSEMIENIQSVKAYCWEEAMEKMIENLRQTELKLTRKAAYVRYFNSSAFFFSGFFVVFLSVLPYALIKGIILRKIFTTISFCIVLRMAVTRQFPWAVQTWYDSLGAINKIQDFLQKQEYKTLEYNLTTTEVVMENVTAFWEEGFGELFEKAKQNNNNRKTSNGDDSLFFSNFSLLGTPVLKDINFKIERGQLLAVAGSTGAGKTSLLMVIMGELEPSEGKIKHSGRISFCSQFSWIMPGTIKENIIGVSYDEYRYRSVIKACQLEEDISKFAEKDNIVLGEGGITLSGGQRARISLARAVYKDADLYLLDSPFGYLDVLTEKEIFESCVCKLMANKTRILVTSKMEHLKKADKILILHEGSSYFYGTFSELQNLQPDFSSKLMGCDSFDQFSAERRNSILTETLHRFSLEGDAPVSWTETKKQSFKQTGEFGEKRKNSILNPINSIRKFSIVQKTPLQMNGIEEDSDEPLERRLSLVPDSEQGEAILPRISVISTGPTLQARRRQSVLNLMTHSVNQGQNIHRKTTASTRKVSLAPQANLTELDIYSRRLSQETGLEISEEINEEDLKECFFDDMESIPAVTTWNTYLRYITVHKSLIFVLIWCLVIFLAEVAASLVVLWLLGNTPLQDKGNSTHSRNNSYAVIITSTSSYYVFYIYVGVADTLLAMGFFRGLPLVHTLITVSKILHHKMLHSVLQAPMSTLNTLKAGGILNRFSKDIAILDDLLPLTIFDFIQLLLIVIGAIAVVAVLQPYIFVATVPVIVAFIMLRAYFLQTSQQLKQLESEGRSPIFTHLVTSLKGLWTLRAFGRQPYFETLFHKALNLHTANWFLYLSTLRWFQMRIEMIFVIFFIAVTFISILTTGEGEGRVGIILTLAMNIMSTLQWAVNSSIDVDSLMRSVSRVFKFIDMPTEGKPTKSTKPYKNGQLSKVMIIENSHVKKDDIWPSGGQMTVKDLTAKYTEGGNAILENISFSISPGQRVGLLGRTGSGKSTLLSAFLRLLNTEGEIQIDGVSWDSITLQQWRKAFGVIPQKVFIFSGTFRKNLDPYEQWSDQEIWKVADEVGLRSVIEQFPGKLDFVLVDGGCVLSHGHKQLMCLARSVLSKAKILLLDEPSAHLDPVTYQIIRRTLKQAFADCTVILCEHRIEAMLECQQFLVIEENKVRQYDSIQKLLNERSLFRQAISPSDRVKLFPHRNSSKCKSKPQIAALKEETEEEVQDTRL

Usually Emax stands for the maximal effect, on the per cent scale that the assay sets. By EC50 is commonly meant the concentration giving half of the maximal effect. Consider `COc1ccc2c(c1)OC(C(=O)Nc1ccc(C(C)(C)C)c(O)c1)CN2` (centres unmarked) [Compound 1], for which the Emax was under 25% and the EC50 lay in the range of 5 to 20 µM. On the same counts, the results for `Cc1ccc2c(c1)OC(C(=O)Nc1cc(O)c(C3(C)CCCCC3)cc1F)CN2` (centres unmarked) [Compound 2] are 25 to 100% and under 5 µM. In the same order, the values of `O=C(Nc1cc(O)c(C2CCCC2)cc1CN1CCCCC1)C1CNc2ccccc2O1` (centres unmarked) [Compound 3] are 25 to 100% and under 5 µM. As for `CCOC(=O)CCc1cc(C2CCCC2)c(O)cc1NC(=O)C1CNc2cc(OC(F)(F)F)ccc2O1` (centres unmarked) [Compound 4], the Emax is over 100% and the EC50 is under 5 µM.

Turning to `O=C(Nc1ccc(C(F)(F)F)c(O)c1)C1CNc2ccccc2O1` (centres unmarked) [Compound 5], the maximal response (Emax) was under 25% and the EC50 was 5 to 20 µM.

As for `Cc1cc2c(cc1F)NCC(C(=O)Nc1cc(O)c(C(C)(C)C)cc1C(C)(C)C)O2` (centres unmarked) [Compound 6], the Emax lay in the range of 25 to 100% and the half-maximal effective concentration (EC50) is under 5 µM. Regarding `Cc1cc(C#CCN(C)C)c(NC(=O)C2CNc3cc(OC(F)(F)F)ccc3O2)cc1O` (centres unmarked) [Compound 7], the Emax fell in the range of 25 to 100% and the EC50 is under 5 µM. On the same counts, the results for `CC(C)(C)c1cc(C(C)(C)C)c(NC(=O)C2CNc3cc(F)c(F)cc3O2)cc1O` (centres unmarked) [Compound 8] are 25 to 100% and under 5 µM. In the same order, the values of `Cc1ccc(NC(=O)C2CNc3cc(OC(F)(F)F)ccc3O2)c(C#CCN2CCC(F)(F)CC2)c1` (centres unmarked) [Compound 9] are 25 to 100% and under 5 µM. As to `CCN1CCN(c2cc(C3CCCC3)c(O)cc2NC(=O)C2CNc3cc(C#N)ccc3O2)CC1` (centres unmarked) [Compound 10], the Emax was under 25% and the concentration for a half-maximal effect (EC50) is 5 to 20 µM.

Regarding `N#Cc1ccc2c(c1)NCC(C(=O)Nc1cc(O)c(C3CCCC3)cc1C1=CCNCC1)O2` (centres unmarked) [Compound 11, 6-cyano-N-(4-cyclopentyl-5-hydroxy-2-(1,2,3,6-tetrahydropyridin-4-yl)phenyl)-3,4-dihydro-2H-benzo[b][1,4]oxazine-2-carboxamide], the Emax was in the range of 25 to 100% and the EC50 is 5 to 20 µM.

For the compound `O=C(Nc1cc(O)c(C2CCCC2)cc1C#CCO)C1CNc2cc(OC(F)(F)F)ccc2O1` (centres unmarked) [Compound 12], the Emax lay within 25 to 100% and the half-maximal effective concentration (EC50) was under 5 µM. Take `CC(C)(C)c1cc(C2CCCC2)c(O)cc1NC(=O)[C@H]1CNc2cc(C#N)ccc2O1` [Compound 13]: the Emax was over 100% and the EC50 was under 5 µM. With `COc1ccc2c(c1)NCC(C(=O)Nc1ccc(C(C)(C)C)c(O)c1)O2` (centres unmarked) [Compound 14], the Emax was under 25% and the concentration giving a half-maximal response (EC50) is 5 to 20 µM. For the compound `Cc1cc(C)c(NC(=O)C2CNc3cc(OC(F)(F)F)ccc3O2)c(C#CCN(C)C)c1` (centres unmarked) [Compound 15], the Emax is 25 to 100% and the EC50 was under 5 µM. Consider `O=C(O)CCc1cc(C2CCCC2)c(O)cc1NC(=O)C1CNc2cc(OC(F)(F)F)ccc2O1` (centres unmarked) [Compound 16], for which the Emax is 25 to 100% and the EC50 is under 5 µM. On the same counts, the results for `N#Cc1cc(C2CCCC2)c(O)cc1NC(=O)[C@H]1CNc2ccc(F)cc2O1` [Compound 17] are 25 to 100% and under 5 µM. In the same order, the values of `CC1(c2cc(F)c(NC(=O)C3CNc4cc(F)ccc4O3)cc2O)CCCCC1` (centres unmarked) [Compound 18] are 25 to 100% and under 5 µM. On the same counts, the results for `CC1(c2cc(F)c(NC(=O)[C@@H]3CNc4ccccc4O3)cc2O)CCCCC1` [Compound 19] are 25 to 100% and under 5 µM. As to `CCc1cc(F)c(NC(=O)C2CNc3ccc(F)cc3O2)cc1O` (centres unmarked) [Compound 20], the Emax was 25 to 100% and the EC50 was under 5 µM.

In the case of `Cc1cc(C2CCCC2)c(O)cc1NC(=O)C1CNc2ccc(F)cc2O1` (centres unmarked) [Compound 21], the Emax lay within 25 to 100% and the EC50 is under 5 µM. `O=C(Nc1cc(O)c(C2CCCC2)cc1C#CCN1CCCC1)C1CNc2cc(OC(F)(F)F)ccc2O1` (centres unmarked) [Compound 22]: the Emax is over 100% and the EC50 was under 5 µM. `N#Cc1cc(C2CCCC2)c(O)cc1NC(=O)C1CNc2ccc(F)cc2O1` (centres unmarked) [Compound 23]: the Emax was 25 to 100% and the EC50 was under 5 µM. In the case of `O=C(O)Cc1cc(C2CCCC2)c(O)cc1NC(=O)C1CNc2cc(OC(F)(F)F)ccc2O1` (centres unmarked) [Compound 24], the Emax is over 100% and the EC50 is under 5 µM.

For `Cc1cc(C2CCCC2)c(O)cc1NC(=O)[C@@H]1CNc2cc(C#N)ccc2O1` [Compound 25], the Emax was 25 to 100% and the EC50 is under 5 µM. With `Cc1ccc(NC(=O)C2CNc3cc(OC(F)(F)F)ccc3O2)c(C#CCN(C)C)c1` (centres unmarked) [Compound 26], the Emax lay within 25 to 100% and the EC50 was under 5 µM. In the same order, the values of `O=C(Nc1ccc(C2CC2)c(O)c1)C1CNc2ccccc2O1` (centres unmarked) [Compound 27] are 25 to 100% and under 5 µM. With `COc1cc(NC(=O)C2CNc3ccccc3O2)ccc1-n1c(C)ccc1C` (centres unmarked) [Compound 28], the Emax lay in the range of 25 to 100% and the EC50 was 5 to 20 µM. With `CN1CCN(c2cc(C3CCCC3)c(O)cc2NC(=O)C2CNc3cc(C#N)ccc3O2)CC1` (centres unmarked) [Compound 29], the Emax was under 25% and the EC50 fell in the range of 5 to 20 µM. Consider `O=C(Nc1ccc2c(C(F)(F)F)c[nH]c2c1)C1CNc2ccccc2O1` (centres unmarked) [Compound 30], for which the maximal effect (Emax) was 25 to 100% and the 50% effective concentration (EC50) lay in the range of 5 to 20 µM. On to `O=C(Nc1cc(O)c(C2CCCC2)cc1C(F)(F)F)C1CNc2ccc(F)cc2O1` (centres unmarked) [Compound 31], for which the maximum response (Emax) was in the range of 25 to 100% and the EC50 is under 5 µM.

Consider `O=C(Nc1cc(O)c(C2CCCC2)cc1C(F)(F)F)[C@H]1CNc2cc(OC(F)(F)F)ccc2O1` [Compound 32], for which the Emax was in the range of 25 to 100% and the EC50 was under 5 µM. Consider `CC(C)(C)c1ccc(NC(=O)C2CNc3cccc(F)c3O2)cc1O` (centres unmarked) [Compound 33], for which the Emax fell in the range of 25 to 100% and the EC50 is under 5 µM. For the compound `CN(C)CC#Cc1cc(C2CCCC2)c(O)cc1NC(=O)C1CNc2cc(C#N)ccc2O1` (centres unmarked) [Compound 34], the Emax lay in the range of 25 to 100% and the EC50 is under 5 µM.

With `CC(C)(C)c1ccc(NC(=O)C2CNc3ccc(F)cc3O2)cc1O` (centres unmarked) [Compound 35], the maximal response (Emax) lay within 25 to 100% and the EC50 is under 5 µM. For the compound `Cc1cc(C#CCN(C)C)c(NC(=O)C2CNc3ccccc3O2)cc1F` (centres unmarked) [Compound 36], the Emax fell in the range of 25 to 100% and the EC50 was 5 to 20 µM. On the same counts, the results for `CN(C)CC#Cc1cc(C2CCCC2)c(O)cc1NC(=O)[C@@H]1CNc2ccccc2O1` [Compound 37] are 25 to 100% and under 5 µM.

Turning to `CN(C)CCCc1cc(C2CCCC2)c(O)cc1NC(=O)C1CNc2cc(OC(F)(F)F)ccc2O1` (centres unmarked) [Compound 38, N-(4-cyclopentyl-2-(3-(dimethylamino)propyl)-5-hydroxyphenyl)-6-(trifluoromethoxy)-3,4-dihydro-2H-benzo[b][1,4]oxazine-2-carboxamide], the maximal effect (Emax) was in the range of 25 to 100% and the half-maximal effective concentration (EC50) is under 5 µM. As for `N#Cc1ccc2c(c1)NCC(C(=O)Nc1cc(O)c(C3CCCC3)cc1C(F)(F)F)O2` (centres unmarked) [Compound 39], the Emax is 25 to 100% and the 50% effective concentration (EC50) is under 5 µM. For the compound `NCC#Cc1cc(C2CCCC2)c(O)cc1NC(=O)C1CNc2cc(OC(F)(F)F)ccc2O1` (centres unmarked) [Compound 40], the Emax was 25 to 100% and the half-maximal effective concentration (EC50) was under 5 µM. In the case of `Cc1cnc(NC(=O)C2CNc3cc(OC(F)(F)F)ccc3O2)c(C#CCN(C)C)c1` (centres unmarked) [Compound 41], the Emax fell in the range of 25 to 100% and the EC50 is under 5 µM. In the same order, the values of `CC(C)Oc1ccc(NC(=O)C2CNc3ccc(F)cc3O2)cc1O` (centres unmarked) [Compound 42] are under 25% and 5 to 20 µM. Take `CN(C)CC#Cc1cc(N2C3CCC2CC3)ccc1NC(=O)C1CNc2cc(C#N)ccc2O1` (centres unmarked) [Compound 43, N-(4-(7-azabicyclo[2.2.1]heptan-7-yl)-2-(3-(dimethylamino)prop-1-ynyl)phenyl)-6-cyano-3,4-dihydro-2H-benzo[b][1,4]oxazine-2-carboxamide]: the EC50 is under 5 µM. `CCc1ccc(NC(=O)C2CNc3cc(OC(F)(F)F)ccc3O2)c(C#CCN(C)C)c1` (centres unmarked) [Compound 44]: the Emax is over 100% and the EC50 is under 5 µM. As for `Cc1ccc(NC(=O)C2CNc3cc(OC(F)(F)F)ccc3O2)c(C#CCN2CCC(F)(F)C2)c1` (centres unmarked) [Compound 45], the Emax was 25 to 100% and the EC50 was under 5 µM.

On to `CC1CCN(Cc2cc(C3CCCC3)c(O)cc2NC(=O)C2CNc3ccccc3O2)CC1` (centres unmarked) [Compound 46], for which the Emax is over 100% and the EC50 is under 5 µM.

As to `O=C(Nc1ccc(OC(F)(F)F)c(O)c1)C1CNc2ccc(F)cc2O1` (centres unmarked) [Compound 47], the Emax was 25 to 100% and the EC50 is under 5 µM. On the same counts, the results for `Cc1ccc(NC(=O)C2CNc3cc(C)ccc3O2)c(C#CCN(C)C)c1` (centres unmarked) [Compound 48] are 25 to 100% and under 5 µM.
